# Assay results from patent publication US8791099B2, “Transition metal complexes of corroles for preventing cardiovascular diseases or disorders” (Technion Research and Development Foundation Ltd., priority 2007, dated 2014).
# Marks after values point to notes of the source that are not given here.
# Legend:
# J-774 macrophages = assay: Corrole-mediated cholesterol efflux from J-774 macrophages; assay type: cell-based, Murine; details: lipoprotein-free medium, 10, 25 or 50 μM, 4 hour, dose-dependent
# Description: Murine J-774 cells (1×10^6/mL) were plated in 24-well plates for 24 hours, then washed and incubated for 1 hour in serum-free DMEM that contained ^3H-cholesterol (2 μCi/mL) and BSA (0.2%). […] After a 4-hour incubation at 37° C. to permit efflux of ^3H-cholesterol from the cells into the medium, 500 μL of the medium was collected. The cells were washed with PBS, 1 mL of 0.1 N NaOH was added to the cells and 500 μL was collected the next day. Medium and cellular ^3H-cholesterol were determined by liquid scintillation counting (LSC). […] Corrole-mediated cholesterol efflux was calculated after subtraction of the non-specific efflux obtained in cells incubated in the absence of corroles.
# A still further indication for a favorable alteration of cellular cholesterol transport by metallocorroles was obtained by studying cholesterol efflux from J-774 macrophages in a lipoprotein-free medium. The iron complex (but not the manganese and gallium complexes) of corrole 1 increased the cholesterol efflux by up to 20% in a dose-dependent fashion.
# [1] = system: Apolipoprotein E deficient mice (E^0 mice); assay: Serum total cholesterol in E^0 mice; assay type: in vivo; details: drinking water 0.04 mM (0.2 mg per mouse per day), 10 weeks
# Description: a) For atherosclerosis evaluation: At an age of about 10 weeks, 24 E^0 mice were randomly divided into 4 groups of 6 mice each.
# The sacrificed mice were also examined with regard to other factors relevant to the development of atherosclerosis.
# [2] = Nitration of fluorescein by peroxynitrite; details: pH 7.4, T=25°C, relative to [fluorescein]0; PN alone 30%
# Description: The changes in fluorescein absorbance were measured on the UV/vis spectrophotometer. The yield of nitration was determined by converting absorbance to changes in concentration of fluorescein and nitrated fluorescein, using pre-determined extinction coefficients. For increased accuracy, the three wavelengths in which the largest changes in absorbance occur were used. The yields were calculated based on the initial substrate concentration.
# (§1) These particular molecules were specifically chosen because they represent targets of hydroxyl radical, nitrogen dioxide, and of oxygen transfer reagents. In addition, their reaction products are easily identified and quantified by established methods.
# [3] = Oxidation of DMSO by copper sulfate/ascorbate; details: CuSO4/ascorbate as initiator; 50 μM corrole, 18 hr
# Description: Reaction was initiated by adding a mixture of CuSO4 and phenanthroline (final concentration of 8 μM for each), followed by sodium ascorbate (500 μM). […]
# Additional experiments were carried out by using CuSO4/ascorbate as the initiator of reactive oxygen species (by the complex Fenton-type oxidation that produces hydroxyl radical via the involvement of superoxide anion radical and hydrogen peroxide), as to bridge between the results of the small molecules and those obtained by oxidation of LDL.
# [4] = Oxidation of tetramethylene sulfoxide to sulfolane by peroxynitrite
# Description: The sulfolane was extracted into diethyl ether after 10 min of stirring and quantified by GC analysis. The same experiment was done at pH 12.7, with a reaction time of 4 hr.
# as §1
# LDL = assay: Oxidation of LDL by copper sulfate; assay type: biochemical, human; details: for Increased damage (TBARS): corrole 0.5 μM
# Description: (§2) Oxidation was initiated by addition of a freshly prepared CuSO4 solution (5 μM) and incubation at 37° C. under air in a shaking water bath was continued for 2 h (LDL) or 5 h (HDL). Lipoprotein oxidation was determined by measuring the amount of TBARS (Aviram et al. 2001).
# (§3) Conjugated dienes formation was continuously monitored for 165 min while TBARS and lipid peroxides (Aviram et al. 2001) were measured after 15, 30, 45, 60, 75, 90, 120 and 165 minutes.
# The more commonly used copper-induced LDL oxidation protocol was also applied. […] This may be appreciated from FIGS. 3A-3C, which show the time course of stepwise formation of conjugated dienes, hydroperoxides, and aldehydes (2.5 μM of metal corrole). […] The total amount of hydroperoxides rapidly reached a maximum at 45 min (due to its subsequent transformation to the final aldehyde products) and the total concentration of aldehydes was increased by a factor of 3 relative to the control experiment. […] Similar results were obtained for HDL oxidation.
# The dependence of LDL oxidation on the corrole concentration was examined by analyses performed 2 hours after oxidation initiation by the copper ion (FIG. 4A).
# HDL = assay: Oxidation of HDL by copper sulfate; assay type: biochemical, human; details: for Effect on conjugated dienes formation in HDL: 2.5 μM corrole, 5 μM CuSO4
# Description: as §2, §3
# The results for the copper-induced oxidation of HDL were very similar to the results obtained for LDL. […] It should be mentioned that the damage measured for HDL is lower than that measured for LDL, due to the lower lipid content of HDL.
# [5] = Nitration of L-tyrosine by peroxynitrite; details: pH 7.4, T=25°C, yield relative to [PN]0; PN alone 11%
# Description: e) Nitration of L-tyrosine: Peroxynitrite (0.44 μmol) was reacted with 0.16 μmol of L-tyrosine in 2 mL phosphate buffer solution, pH 7.4 at T=24° C. for 5 min. The concentration of such formed nitrotyrosine was estimated by recording the 438 nm absorbance (ε=4200 M^−1cm^−1) of basified solutions (via the addition of 0.2 ml of 7.8 M NaOH).
# as §1
# [6] = Oxidation of DMSO to formaldehyde by peroxynitrite; details: pH 7.4, T=25°C, yield relative to [PN]0; PN alone 11.5%
# Description: The final pH of the solutions was 7.4 and the temperature was maintained at 24° C. After 5 min of stirring, a 0.3 ml NaOH solution (7.8 M) was added to each tube for analyzing the amount of formed formaldehyde. This was immediately followed by supplying the tubes with 0.3 mL of 34.2 mM Purpald® (a color forming reagent for the determination of aldehydes; Aldrich Chemical Co.) in 480 mM HCl; and a second incubation with continuous shaking was performed for 10 min at 24° C. The thus obtained reaction product between formaldehyde and Purpald® was oxidized to a colored compound by the addition of 0.3 mL 470 mM KIO4 in 470 mM NaOH. The absorbance at 550 nm was measured with a spectrophotometer and the amount of formaldehyde was determined by using a standard curve obtained from formaldehyde solutions of known concentrations (a linear curve was obtained by drawing final O.D. at 550 nm versus initial formaldehyde concentrations).
# as §1
# [7] = Oxidation of deoxyribose to malonyldialdehyde by peroxynitrite; details: pH 7.4, T=25°C, yield relative to [PN]0; PN alone 1.7%
# Description: 1 mL of 2.8% trichloroacetic acid and 1 mL of 1% thiobarbituric acid in 0.1 M NaOH adjusted to pH 3.5 were sequentially added to 1 mL samples and the absorbance spectra at 532 nm due to the absorbance maximum of the MDA-thiobarbiturate product were recorded as a function of time (0-22 hr) at 24° C.
# as §1
# [8] = pH 7.4, T=25°C, yield relative to [PN]0, PN alone 3.14%
# [9] = pH 12.7, yield relative to [PN]0, PN alone 83%
Compound,Increase of cholesterol efflux from J-774 macrophages (J-774 macrophages),Total serum cholesterol lower than in the control group [1] [%],Yield of nitrofluorescein from fluorescein [2],Inhibition of the oxidation of DMSO to malonaldehyde [3],"Yield of sulfolane from tetramethylenesulfoxide [4, 8]","Yield of sulfolane from tetramethylenesulfoxide [4, 9]",Increased damage (TBARS) (LDL; 2 hours after CuSO4),Effect on conjugated dienes formation in HDL (HDL),Yield of L-nitrotyrosine from L-tyrosine [5] [%],Yield of formaldehyde from DMSO [6] [%],Yield of malonyldialdehyde from deoxyribose [7] [%],other results
"O=S(=O)(O)c1cc2[n]3c1C(c1c(F)c(F)c(F)c(F)c1F)=C1C=CC4=[N+]1[Fe-]31[n]3c(cc(S(=O)(=O)O)c3-2)C(c2c(F)c(F)c(F)c(F)c2F)=c2ccc([n]21)=C4c1c(F)c(F)c(F)c(F)c1F (stereo not drawn) [1-Fe, 5,10,15-tris(pentafluorophenyl)-2,17-bis(sulfonic acid)-corrolato iron(III)]",increases,40,4%^(a),completely,0.1%^,0.4%^(b),minor increase in TBARS,completely eliminated their formation,11,0,0,"Increase of cholesterol efflux from J-774 macrophages (J-774 macrophages; listed as iron complex): up to 20%; Aldehydes formation after 24 hours (LDL; 2.5 μM corrole, 5 μM CuSO4): no aldehydes were formed; Damage by all three criteria (conjugated dienes, hydroperoxides, aldehydes) (LDL; 2.5 μM corrole, 5 μM CuSO4): practically no damage; Fold by which the manganese porphyrin concentration for 100% inhibition exceeds the 1-Fe concentration for full inhibition (LDL; 100 μM vs 2.5 μM): 40 fold; Concentration giving full inhibition of LDL oxidation (LDL; copper-induced LDL oxidation): 2.5 µM; Effect on TBARS formation (LDL; corrole 2.5 μM and higher, 2 hours after CuSO4): complete inhibition; Effect on TBARS formation in HDL (HDL; corrole 2.5 μM and higher, 5 hr after CuSO4): protective effect"
"O=S(=O)(O)c1cc2[n]3c1C(c1c(F)c(F)c(F)c(F)c1F)=C1C=CC4=[N+]1[Mn-]31[n]3c(cc(S(=O)(=O)O)c3-2)C(c2c(F)c(F)c(F)c(F)c2F)=c2ccc([n]21)=C4c1c(F)c(F)c(F)c(F)c1F (stereo not drawn) [1-Mn, 5,10,15-tris(pentafluorophenyl)-2,17-bis(sulfonic acid)-corrolato manganese(III)]",not,26,0%,65%,0.18%,0.6%^(b),about 150%,shortened the delay time,0,0,0,"Factor of increase of total concentration of aldehydes relative to control (LDL; 2.5 μM corrole, 5 μM CuSO4): 3; Time at which total hydroperoxides reached a maximum (LDL; 2.5 μM corrole, 5 μM CuSO4): 45 min; Delay in formation of conjugated dienes (LDL; 2.5 μM corrole, 5 μM CuSO4, control 30 minutes): 15 min; Increase of TBARS formation in HDL (HDL; all concentrations measured, 5 hr after CuSO4): about 2 folds"
